Here are results for three molecules from patent US9868719B2, “Compounds with pesticidal activity” (BAYER CROPSCIENCE AKTIENGESELLSCHAFT, priority 2013, dated 2018).

In general, mortality refers to the share of the test organisms that died. Usually chromatographic logP stands for a lipophilicity value derived from retention on a column. Low readings indicate a more hydrophilic compound, high ones a more lipophilic compound.

Molecules are shown by their SMILES.

One series has as its system Cooperia curticei. Nature of the series: microbe, parasite or virus in culture. The note with it: 120 h, read-out: activity (larval mortality). The procedure:
Cooperia curticei-Test (COOPCU)
(§1) Solvent: dimethyl sulfoxide
(§2) To produce a suitable preparation of active compound, 10 mg of active compound are dissolved in 0.5 ml solvent, and the concentrate is diluted with “Ringer's solution” to the desired concentration.
Approximately 40 nematode larvae (Cooperia curticei) are transferred into a test tube containing the compound solution.
After 5 days percentage of larval mortality is recorded, 100% efficacy means all larvae are killed; 0% efficacy means no larvae are killed.

The subject of the next series is Haemonchus contortus. The experiment in a line: Haemonchus contortus-Test (HAEMCO), larval mortality. The note with it: 120 h, read-out: activity (larval mortality). As for the experimental part: Haemonchus contortus-Test (HAEMCO)
as §1, §2
Approximately 40 larvae of the red stomach worm (Haemonchus contortus) are transferred into a test tube containing compound solution.
After 5 days percentage of larval mortality are recorded, 100% efficacy means all larvae are killed, 0% efficacy means no larvae are killed.

Another series relates to Meloidogyne incognita. The experiment in a line: Meloidogyne incognita-Test, gall formation on salad seedlings. Format: in vivo. The note with it: 336 h, read-out: nematicidal activity (on the basis of gall formation). The procedure:
Meloidogyne incognita-Test
Solvent: 125.0 parts by weight of acetone
To produce a suitable preparation of active compound, 1 part by weight of active compound is mixed with the stated amount of solvent, and the concentrate is diluted with water to the desired concentration.
Vessels are filled with sand, a solution of the active ingredient, a suspension containing eggs and larvae of the southern root-knot nematode (Meloidogyne incognita) and salad seeds. The salad seeds germinate and the seedlings grow. Galls develop in the roots.
After 14 days the nematicidal activity is determined on the basis of the percentage of gall formation. 100% means no galls were found and 0% means the number of galls found on the roots of the treated plants was equal to that in untreated control plants.

Series [1] concerns Nippostrongylus brasiliensis. The experiment in a line: Nippostrongylus brasiliensis-Test (NIPOBR), in vitro efficacy, acetylcholine esterase readout. As to conditions: 10 μg/ml, read-out: activity (reduction of AChe compared to negative control). The procedure: Nippostrongylus brasiliensis-Test (NIPOBR) (In Vitro Efficacy Test)
Adult Nippostrongylus brasiliensis were washed with saline buffer containing 100 U/ml penicillin, 0.1 mg/ml streptomycin and 2.5 μg/ml amphotericin B. Test compounds were dissolved in DMSO, and worms were incubated in medium in a final concentration of 10 μg/ml. An aliquot of the medium was used to determine the acetylcholine esterase activity in comparison to a negative control. The principle of measuring acetylcholine esterase as readout for anthelmintic activity was described in Rapson et al (1986) and Rapson et al (1987).

On to `O=C(NCC(F)(F)c1ncc(-c2cncc(Cl)c2)cc1Cl)c1ccccc1C(F)(F)F` [Example 15], for which the mortality at 20 ppm with Cooperia curticei and in the series with Haemonchus contortus was 100% throughout. The pest or weed control at 20 ppm in the series on Meloidogyne incognita is 90%. Moreover, the inhibition at 10 µg/mL in series [1] is no less than 60%. Further, the chromatographic logP in the series “physchem” was 3.17.

For `O=C(NCC(F)(F)c1ncc(-c2ccc(F)nc2)cc1Cl)c1ccccc1C(F)(F)F` [Example 16], the mortality at 20 ppm in the series on Cooperia curticei and with Haemonchus contortus was 100% throughout. The pest or weed control at 20 ppm with Meloidogyne incognita amounted to 1%. In addition, the inhibition at 10 µg/mL in series [1] is no less than 60%. Besides, the chromatographic logP in the series “physchem” was 3.02.

Take `O=C(NCC(F)(F)c1ncc(-c2cc(Cl)nc(Cl)c2)cc1Cl)c1ccccc1C(F)(F)F` [Example 25]: the mortality at 20 ppm with Cooperia curticei and in the series on Haemonchus contortus was 100% throughout. In addition, the pest or weed control at 20 ppm in the series on Meloidogyne incognita was found to be 1%. For the same molecule, the inhibition at 10 µg/mL in series [1] is no less than 60%. For the same molecule, the chromatographic logP in the series “physchem” was determined as 3.84.
